Source: article PMC4805251, “Novel Antimicrobial Peptides EeCentrocins 1, 2 and EeStrongylocin 2 from the Edible Sea Urchin Echinus esculentus Have 6-Br-Trp Post-Translational Modifications” (PLoS ONE, 2016)
Like-named read-outs stand apart in the source and are kept apart here. Ends that are not written are not given here.

Assays:
Type in all cases: cell-based
[1] = tested on: Gram-positive and Gram-negative bacteria (tested strains); conditions: 24 h
Source text: Organic phase extract, SPE eluates and HPLC-fractions were screened for antibacterial activity against two strains of Gram-positive and two strains of Gram-negative bacteria; Corynebacterium glutamicum (ATCC 13032), Staphylococcus aureus (ATCC 9144), Pseudomonas aeruginosa #1 (ATCC 27853) and Escherichia coli #1 (ATCC 25922). For extended antimicrobial bioactivity screening, the following bacterial strains were used, three strains of Gram-positive bacteria; S. epidermidis #1 (5179-R1) kindly provided by Holger Rohde, S. epidermidis #2, RP62A (ATCC 35984) and Bacillus subtilis (ATCC 23857) in addition to the Gram-negative P. aeruginosa #2, PA 01 (ATCC 15692, DSM 19880) and E. coli #2, NR 698 (MC4100/ptD4213). […]
The test plates were incubated for 24 h at 35°C with optical density (OD595) recorded every hour using an Envision 2103 multilabel reader, controlled by the Wallac Envision manager (PerkinElmer, CT, USA). […]
ACN-phases and SPE eluates were tested with two-fold serial dilutions ranging from 5.0 to 0.005 mg/ml (5.0, 2.5, 1.25, 0.63, 0.31, 0.16, 0.08, 0.04, 0.02, 0.01, 0.005 mg/ml) whereas HPLC-fractions were tested undiluted for antibacterial activity. […] Antimicrobial assays involving natural peptides (i.e. fractionated natural material) were run only once due to limited quantities, whereas all other assays were run in triplicates.

Saccharomyces cerevisiae = tested on: Saccharomyces cerevisiae
Method: (§1) The synthetic peptides (see section 2.11) were also screened for antifungal activity against Candida albicans (ATCC 10231), Saccharomyces cerevisiae, Rhodotorula sp., Aureobasidium pullulans and Cladosporium sp. The antifungal assay was performed as described previously. Briefly, fungal spores were dissolved in potato dextrose broth (Difco, Lawrence, KS, USA) to a concentration of 4 × 10^5 spores/ml. The spores (50 μl) were inoculated on 96-well Nunclon^TM microtiter plates containing the synthetic peptides (50 μl) dissolved in MQ-H2O. […] MIC was defined as the lowest concentration of peptide giving no visible fungal growth. The negative (growth) control contained medium and fungal solution.
(§2) ACN-phases and SPE eluates were tested with two-fold serial dilutions ranging from 5.0 to 0.005 mg/ml (5.0, 2.5, 1.25, 0.63, 0.31, 0.16, 0.08, 0.04, 0.02, 0.01, 0.005 mg/ml) whereas HPLC-fractions were tested undiluted for antibacterial activity. Pure, native peptides and synthetic peptides (described in section 2.11) were tested for antimicrobial activity in concentrations ranging from 100 to 0.1 μM in two-fold serial dilutions (100, 50, 25, 12.5, 6.25, 3.13, 1.56, 0.78, 0.39, 0.20, 0.10 μM). Antimicrobial assays involving natural peptides (i.e. fractionated natural material) were run only once due to limited quantities, whereas all other assays were run in triplicates.

Aureobasidium pullulans = tested on: Aureobasidium pullulans
Method: as §1, §2

Cladosporium sp. = tested on: Cladosporium sp.
Method: as §1, §2

Rhodotorula sp. = tested on: Rhodotorula sp.
Method: as §1, §2

[2] = tested on: Candida albicans (ATCC 10231)
Method: as §1, §2

[3] = tested on: Bacillus subtilis (ATCC 23857)
Source text: (§3) Organic phase extract, SPE eluates and HPLC-fractions were screened for antibacterial activity against two strains of Gram-positive and two strains of Gram-negative bacteria; Corynebacterium glutamicum (ATCC 13032), Staphylococcus aureus (ATCC 9144), Pseudomonas aeruginosa #1 (ATCC 27853) and Escherichia coli #1 (ATCC 25922). For extended antimicrobial bioactivity screening, the following bacterial strains were used, three strains of Gram-positive bacteria; S. epidermidis #1 (5179-R1) kindly provided by Holger Rohde, S. epidermidis #2, RP62A (ATCC 35984) and Bacillus subtilis (ATCC 23857) in addition to the Gram-negative P. aeruginosa #2, PA 01 (ATCC 15692, DSM 19880) and E. coli #2, NR 698 (MC4100/ptD4213).
(§4) Cultures stored at -80°C were smeared onto agar plates and cultured for 24 h at 35°C. One colony of each bacterial strain was transferred to 5 ml liquid Müller-Hinton (MH, Difco, Lawrence, KS, USA) medium in a glass tube and left shaking at room temperature overnight at 600 rpm. The cultures of actively growing bacteria (20 μl) were further inoculated in 5 ml MH medium and left shaking for 2 h at room temperature. The antibacterial assays were performed as previously described by. Briefly, the bacterial cultures were diluted with medium to 1.3–1.5 × 10^4 bacteria/ml final concentrations and an aliquot of 50 μl was added to each well in 96-well Nunclon^TM microtiter plates (Nagle Nunc Int., Denmark) preloaded with 50 μl test sample solutions, i.e. extracts, eluates or peptides.
(§5) The test plates were incubated for 24 h at 35°C with optical density (OD595) recorded every hour using an Envision 2103 multilabel reader, controlled by the Wallac Envision manager (PerkinElmer, CT, USA). Antibacterial activity was defined as a sample showing >90% inhibition (as measured by optical density) compared to the negative (growth) controls, consisting of bacteria and water. Oxytetracycline (20 μM) served as a positive (inhibition) control. The minimum inhibitory concentration (MIC) was defined as the lowest concentration of a sample displaying >90% inhibition.
as §2

[4] = tested on: E. coli #2, NR 698 (MC4100/ptD4213)
Source text: as §3, §4, §5, §2

[5] = tested on: Escherichia coli #1 (ATCC 25922)
Source text: as §3, §4, §5, §2

[6] = tested on: Corynebacterium glutamicum (ATCC 13032)
Source text: as §3, §4, §5, §2

[7] = tested on: P. aeruginosa #2, PA 01 (ATCC 15692, DSM 19880)
Source text: as §3, §4, §5, §2

[8] = tested on: S. epidermidis #1 (5179-R1)
Source text: as §3, §4, §5, §2

[9] = tested on: Pseudomonas aeruginosa #1 (ATCC 27853)
Source text: as §3, §4, §5, §2

[10] = tested on: S. epidermidis #2, RP62A (ATCC 35984)
Source text: as §3, §4, §5, §2

[11] = tested on: Staphylococcus aureus (ATCC 9144)
Source text: as §3, §4, §5, §2

GWWRRTVDKVRNAGRKVAGFASKACGALGH [EeCentrocin 1 HC]
MIC range towards bacteria [1]: 0.39 to 6.25 µM
MIC S. cerevisiae (Saccharomyces cerevisiae; 24 h): 50 µM
MIC raw data S. cerevisiae (Saccharomyces cerevisiae; parallel 1 of three): 50 µM
MIC raw data S. cerevisiae (Saccharomyces cerevisiae; parallel 2 of three): 50 µM
MIC raw data S. cerevisiae (Saccharomyces cerevisiae; parallel 3 of three): 50 µM
MIC A. pullulans (Aureobasidium pullulans; 24 h): 12.5 µM
MIC raw data A. pullulans (Aureobasidium pullulans; parallel 1 of three): 12.5 µM
MIC raw data A. pullulans (Aureobasidium pullulans; parallel 2 of three): 12.5 µM
MIC raw data A. pullulans (Aureobasidium pullulans; parallel 3 of three): 12.5 µM
MIC Cladosporium sp. (Cladosporium sp.; 24 h): >100 µM
MIC raw data Cladosporium sp. (Cladosporium sp.; parallel 1 of three): >100 µM
MIC raw data Cladosporium sp. (Cladosporium sp.; parallel 2 of three): >100 µM
MIC raw data Cladosporium sp. (Cladosporium sp.; parallel 3 of three): >100 µM
MIC raw data Rhodotorula sp. (Rhodotorula sp.; parallel 1 of three): 12.5 µM
MIC raw data Rhodotorula sp. (Rhodotorula sp.; parallel 2 of three): 12.5 µM
MIC raw data Rhodotorula sp. (Rhodotorula sp.; parallel 3 of three): 12.5 µM
MIC Rhodotorula sp. (Rhodotorula sp.; potato dextrose broth, 24 h at room temperature, visual, no visible fungal growth, value of Table 2, triplicates): 12.5 µM
MIC C. albicans ([2]; ATCC 10231, 24 h): 100 µM
MIC raw data C. albicans ([2]; parallel 1 of three): 100 µM
MIC raw data C. albicans ([2]; parallel 2 of three): 100 µM
MIC raw data C. albicans ([2]; parallel 3 of three): 100 µM
MIC B. subtilis ([3]; MH medium, 24 h at 35°C, OD595, lowest concentration with >90% inhibition, value of Table 2, synthetic peptides in triplicates): 1.56 µM
MIC raw data B. subtilis ([3]; parallel 1 of three): 1.56 µM
MIC raw data B. subtilis ([3]; parallel 2 of three): 1.56 µM
MIC raw data B. subtilis ([3]; parallel 3 of three): 0.78 µM
MIC E. coli #2 ([4]; MH medium, 24 h at 35°C, OD595, >90% inhibition, value of Table 2, triplicates): 1.56 µM
MIC raw data E. coli #2 ([4]; parallel 1 of three): 1.56 µM
MIC raw data E. coli #2 ([4]; parallel 2 of three): 1.56 µM
MIC raw data E. coli #2 ([4]; parallel 3 of three): 1.56 µM
MIC E. coli #1 ([5]; ATCC 25922, 24 h): 0.78 µM
MIC raw data E. coli #1 ([5]; parallel 1 of three): 0.78 µM
MIC raw data E. coli #1 ([5]; parallel 2 of three): 0.78 µM
MIC raw data E. coli #1 ([5]; parallel 3 of three): 0.78 µM
MIC C. glutamicum ([6]; ATCC 13032, 24 h): 0.39 µM
MIC raw data C. glutamicum ([6]; parallel 1 of three): 0.39 µM
MIC raw data C. glutamicum ([6]; parallel 2 of three): 0.39 µM
MIC raw data C. glutamicum ([6]; parallel 3 of three): 0.39 µM
MIC P. aeruginosa #2 ([7]; ATCC 15692, 24 h): 3.13 µM
MIC raw data P. aeruginosa #2 ([7]; parallel 1 of three): 3.13 µM
MIC raw data P. aeruginosa #2 ([7]; parallel 2 of three): 3.13 µM
MIC raw data P. aeruginosa #2 ([7]; parallel 3 of three): 3.13 µM
MIC S. epidermidis #1 ([8]; #1 (5179-R1, 24 h)): 6.25 µM
MIC raw data S. epidermidis #1 ([8]; parallel 1 of three): 6.25 µM
MIC raw data S. epidermidis #1 ([8]; parallel 2 of three): 6.25 µM
MIC raw data S. epidermidis #1 ([8]; parallel 3 of three): 6.25 µM
MIC P. aeruginosa #1 ([9]; MH medium, 24 h at 35°C, OD595, >90% inhibition, value of Table 2, native peptides run once, synthetic in triplicates): 1.56 µM
MIC raw data P. aeruginosa #1 ([9]; parallel 1 of three): 1.56 µM
MIC raw data P. aeruginosa #1 ([9]; parallel 2 of three): 1.56 µM
MIC raw data P. aeruginosa #1 ([9]; parallel 3 of three): 1.56 µM
MIC S. epidermidis #2 ([10]; ATCC 35984, 24 h): 3.13 µM
MIC raw data S. epidermidis #2 ([10]; parallel 1 of three): 3.13 µM
MIC raw data S. epidermidis #2 ([10]; parallel 2 of three): 3.13 µM
MIC raw data S. epidermidis #2 ([10]; parallel 3 of three): 3.13 µM
MIC S. aureus ([11]; ATCC 9144, 24 h): 3.13 µM
MIC raw data S. aureus ([11]; parallel 1 of three): 3.13 µM
MIC raw data S. aureus ([11]; parallel 2 of three): 3.13 µM
MIC raw data S. aureus ([11]; parallel 3 of three): 3.13 µM
